According to US10219516B2, “Molecules having pesticidal utility, and intermediates, compositions, and processes, related thereto” (priority 2015, dated 2019):
Where a name gives a salt, the structure may show the parent alone.

Tests used:
Format in all cases: in vivo
[1] = test system: Beet Armyworm (Spodoptera exigua, LAPHEG); experiment: Bioassay on Beet Armyworm (BAW), 128-well diet tray assay; conditions: Beet Armyworm, 128-well diet tray assay, read-out: BAW rating
How it was run: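 Artificial diet surface-treated with 50 μg/cm^2 test molecule in 90:10 acetone-water, dried, then infested with one to five second instar larvae per well. Held covered and vented at 25° C., 14:10 light-dark for five to seven days; percent mortality recorded per well and averaged over eight wells.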

[2] = test system: Cabbage Looper (Trichoplusia ni, TRIPNI); experiment: Bioassay on Cabbage Looper (CL), 128-well diet tray assay; conditions: Trichoplusia ni; Cabbage Looper, 128-well diet tray assay; read-out: CL rating
How it was run: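 Second-instar larvae, one to five per well, placed on artificial diet treated with 50 μg/cm^2 test molecule in 90:10 acetone-water, dried before infestation. Held 5–7 days at 25° C, 14:10 light-dark; percent mortality averaged over eight wells.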

[3] = test system: Yellow Fever Mosquito (Aedes aegypti, AEDSAE); experiment: Bioassay on Yellow Fever Mosquito (YFM), 96-well plate larval assay; conditions: Yellow Fever Mosquito, 96-well plate larval assay
How it was run: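 Compound stocks at 4000 ppm in DMSO were diluted with 90:10 water/acetone, and 15 μL aliquots were dispensed into six replicate plates. About 1-day-old larvae in liver-powder water were added per well. Plates were covered and held at room temperature for 3 days before each well was scored for mortality.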

CNc1ccc(NC(=O)c2cc(NC(=O)[C@H]3[C@H](c4cc(Cl)cc(Cl)c4)C3(Cl)Cl)ccc2Cl)cc1 (relative stereo) [PF22, trans-2-Chloro-5-(2,2-dichloro-3-(3,5-dichlorophenyl)cyclopropane-1-carboxamido)-N-(4-(methylamino)phenyl)benzamide hydrochloride]
pest or weed control at 50 µg/cm2 [1]: 50 to 100%
pest or weed control at 50 µg/cm2 [2]: 50 to 100%
YFM rating [3]: A (80-100)

O=C(Nc1ccc(NC(=O)C(F)(F)F)cc1)c1cc(NC(=O)[C@H]2[C@H](c3cc(Cl)cc(Cl)c3)C2(Cl)Cl)ccc1Cl (relative stereo) [PF24, trans-2-chloro-5-(2,2-dichloro-3-(3,5-dichlorophenyl)cyclopropane-1-carboxamido)-N-(4-(2,2,2-trifluoroacetamido)phenyl)benzamide]
pest or weed control at 50 µg/cm2 [1]: 50 to 100%
pest or weed control at 50 µg/cm2 [2]: 50 to 100%
YFM rating [3]: A (80-100)

O=C(CC(F)(F)F)Nc1ccc(NC(=O)c2cc(NC(=O)[C@H]3[C@H](c4cc(Cl)cc(Cl)c4)C3(Cl)Cl)ccc2Cl)cc1 (relative stereo) [PF25, trans-2-chloro-5-(2,2-dichloro-3-(3,5-dichlorophenyl)cyclopropane-1-carboxamido)-N-(4-(3,3,3-trifluoropropanamido)phenyl)benzamide]
pest or weed control at 50 µg/cm2 [1]: 50 to 100%
pest or weed control at 50 µg/cm2 [2]: 50 to 100%
YFM rating [3]: B (More than 0-Less than 80)

C=CC(=O)Nc1ccc(NC(=O)c2cc(NC(=O)[C@H]3[C@H](c4cc(Cl)cc(Cl)c4)C3(Cl)Cl)ccc2Cl)cc1 (relative stereo) [PF26, trans-N-(4-Acrylamidophenyl)-2-chloro-5-(2,2-dichloro-3-(3,5-dichlorophenyl)cyclopropane-1-carboxamido)benzamide]
pest or weed control at 50 µg/cm2 [1]: 50 to 100%
pest or weed control at 50 µg/cm2 [2]: 50 to 100%
YFM rating [3]: A (80-100)

CN(C(=O)CC(F)(F)F)c1ccc(NC(=O)c2cc(NC(=O)[C@H]3[C@H](c4cc(Cl)cc(Cl)c4)C3(Cl)Cl)ccc2Cl)cc1 (relative stereo) [PF30, trans-2-Chloro-5-(2,2-dichloro-3-(3,5-dichlorophenyl)cyclopropane-1-carboxamido)-N-(4-(3,3,3-trifluoro-N-methylpropanamido)phenyl)benzamide]
pest or weed control at 50 µg/cm2 [1]: 50 to 100%
pest or weed control at 50 µg/cm2 [2]: 50 to 100%
YFM rating [3]: B (More than 0-Less than 80)

C[C@]1(c2ccc(OC(F)(F)F)cc2)[C@H](C(=O)Nc2ccc(Cl)c(C(=O)Nc3ccc(F)cc3)c2)C1(Cl)Cl (relative stereo) [PF32, trans-2-Chloro-5-(2,2-dichloro-3-methyl-3-(4-(trifluoromethoxy)phenyl)cyclopropanecarboxamido)-N-(4-fluorophenyl)benzamide]
pest or weed control at 50 µg/cm2 [1]: 50 to 100%
pest or weed control at 50 µg/cm2 [2]: 50 to 100%
YFM rating [3]: A (80-100)

O=C(Nc1ccc(F)cc1)c1cc(NC(=O)[C@H]2[C@H](c3cc(Cl)cc(Br)c3)C2(Cl)Cl)ccc1Cl (relative stereo) [PF37, 5-(trans-3-(3-Bromo-5-chlorophenyl)-2,2-dichlorocyclopropane-1-carboxamido)-2-chloro-N-(4-fluorophenyl)benzamide]
pest or weed control at 50 µg/cm2 [1]: 50 to 100%
pest or weed control at 50 µg/cm2 [2]: 50 to 100%
YFM rating [3]: B (More than 0-Less than 80)

CC(=O)Nc1ccc(NC(=O)c2cc(NC(=O)[C@H]3[C@H](c4cc(Cl)cc(Cl)c4)C3(Cl)Cl)ccc2Cl)c(F)c1 (relative stereo) [PF40, trans-N-(4-Acetamido-2-fluorophenyl)-2-chloro-5-(2,2-dichloro-3-(3,5-dichlorophenyl)cyclopropane-1-carboxamido)benzamide]
pest or weed control at 50 µg/cm2 [1]: 50 to 100%
pest or weed control at 50 µg/cm2 [2]: 50 to 100%
YFM rating [3]: A (80-100)

CC(=O)Nc1ccc(NC(=O)c2cc(NC(=O)[C@H]3[C@H](c4cc(Cl)c(Cl)c(Cl)c4)C3(Cl)Cl)ccc2Cl)c(F)c1 (relative stereo) [PF42, trans-N-(4-Acetamido-2-fluorophenyl)-2-chloro-5-(2,2-dichloro-3-(3,4,5-trichlorophenyl)cyclopropane-1-carboxamido)benzamide]
pest or weed control at 50 µg/cm2 [1]: 50 to 100%
pest or weed control at 50 µg/cm2 [2]: 50 to 100%
YFM rating [3]: A (80-100)

Cc1cc(NC(=O)c2cc(NC(=O)[C@H]3[C@H](c4cc(Cl)cc(Cl)c4)C3(Cl)Cl)ccc2Cl)ccc1F (relative stereo) [PF44, trans-2-Chloro-5-(2,2-dichloro-3-(3,5-dichlorophenyl)cyclopropane-1-carboxamido)-N-(4-fluoro-3-methylphenyl)benzamide]
pest or weed control at 50 µg/cm2 [1]: 50 to 100%
pest or weed control at 50 µg/cm2 [2]: 50 to 100%
YFM rating [3]: A (80-100)

Cc1cc(F)ccc1NC(=O)c1cc(NC(=O)[C@H]2[C@H](c3ccc(Cl)c(Cl)c3)C2(Cl)Cl)ccc1Cl (relative stereo) [PF46, trans-2-Chloro-5-(2,2-dichloro-3-(3,4-dichlorophenyl)cyclopropane-1-carboxamido)-N-(4-fluoro-2-methylphenyl)benzamide]
pest or weed control at 50 µg/cm2 [1]: 50 to 100%
pest or weed control at 50 µg/cm2 [2]: 50 to 100%
YFM rating [3]: A (80-100)

Cc1cc(F)ccc1NC(=O)c1cc(NC(=O)[C@H]2[C@H](c3ccc(F)c(Cl)c3)C2(Cl)Cl)ccc1Cl (relative stereo) [PF48, trans-2-Chloro-5-(2,2-dichloro-3-(3-chloro-4-fluorophenyl)cyclopropane-1-carboxamido)-N-(4-fluoro-2-methylphenyl)benzamide]
pest or weed control at 50 µg/cm2 [1]: 50 to 100%
pest or weed control at 50 µg/cm2 [2]: 50 to 100%
YFM rating [3]: A (80-100)

Cc1cc(F)ccc1N(C)C(=O)c1cc(NC(=O)[C@H]2[C@H](c3cc(Cl)cc(Cl)c3)C2(Cl)Cl)ccc1Cl (relative stereo) [PF49, trans-2-Chloro-5-(2,2-dichloro-3-(3,5-dichlorophenyl)cyclopropane-1-carboxamido)-N-(4-fluoro-2-methylphenyl)-N-methylbenzamide]
pest or weed control at 50 µg/cm2 [1]: 50 to 100%
pest or weed control at 50 µg/cm2 [2]: 50 to 100%
YFM rating [3]: B (More than 0-Less than 80)

Cc1cc(F)ccc1N(C)C(=O)c1cc(NC(=O)[C@H]2[C@H](c3ccc(F)c(Cl)c3)C2(Cl)Cl)ccc1Cl (relative stereo) [PF50, trans-2-Chloro-5-(2,2-dichloro-3-(3-chloro-4-fluorophenyl)cyclopropane-1-carboxamido)-N-(4-fluoro-2-methylphenyl)-N-methylbenzamide]
pest or weed control at 50 µg/cm2 [1]: 50 to 100%
pest or weed control at 50 µg/cm2 [2]: 50 to 100%
YFM rating [3]: A (80-100)

COc1cc(NC(=O)c2cc(NC(=O)[C@H]3[C@H](c4cc(Cl)cc(Cl)c4)C3(Cl)Cl)ccc2Cl)ccc1F (relative stereo) [PF52, trans-2-Chloro-5-(2,2-dichloro-3-(3,5-dichlorophenyl)cyclopropane-1-carboxamido)-N-(4-fluoro-3-methoxyphenyl)benzamide]
pest or weed control at 50 µg/cm2 [1]: 50 to 100%
pest or weed control at 50 µg/cm2 [2]: 50 to 100%
YFM rating [3]: A (80-100)

Cc1cc(NC(=O)c2cc(NC(=O)[C@H]3[C@H](c4cc(Cl)cc(Cl)c4)C3(Cl)Cl)ccc2Cl)cc(C)c1F (relative stereo) [PF53, trans-2-Chloro-5-(2,2-dichloro-3-(3,5-dichlorophenyl)cyclopropane-1-carboxamido)-N-(4-fluoro-3,5-dimethylphenyl)benzamide]
pest or weed control at 50 µg/cm2 [1]: 50 to 100%
pest or weed control at 50 µg/cm2 [2]: 50 to 100%
YFM rating [3]: A (80-100)

Cc1c(F)ccc(NC(=O)c2cc(NC(=O)[C@H]3[C@H](c4cc(Cl)cc(Cl)c4)C3(Cl)Cl)ccc2Cl)c1C (relative stereo) [PF54, trans-2-Chloro-5-(2,2-dichloro-3-(3,5-dichlorophenyl)cyclopropane-1-carboxamido)-N-(4-fluoro-2,3-dimethylphenyl)benzamide]
pest or weed control at 50 µg/cm2 [1]: 50 to 100%
pest or weed control at 50 µg/cm2 [2]: 50 to 100%
YFM rating [3]: A (80-100)

O=C(Nc1ccc(-n2ccnc2)cc1)c1cc(NC(=O)[C@H]2[C@H](c3cc(Cl)cc(Cl)c3)C2(Cl)Cl)ccc1Cl (relative stereo) [PF56, trans-N-(4-(1H-Imidazol-1-yl)phenyl)-2-chloro-5-(2,2-dichloro-3-(3,5-dichlorophenyl)cyclopropane-1-carboxamido)benzamide]
pest or weed control at 50 µg/cm2 [1]: 50 to 100%
pest or weed control at 50 µg/cm2 [2]: 50 to 100%
YFM rating [3]: A (80-100)

O=C(Nc1ccc(-n2cncn2)cc1)c1cc(NC(=O)[C@H]2[C@H](c3cc(Cl)cc(Cl)c3)C2(Cl)Cl)ccc1Cl (relative stereo) [PF57, trans-N-(4-(1H-1,2,4-Triazol-1-yl)phenyl)-2-chloro-5-(2,2-dichloro-3-(3,5-dichlorophenyl)cyclopropane-1-carboxamido)benzamide]
pest or weed control at 50 µg/cm2 [1]: 50 to 100%
pest or weed control at 50 µg/cm2 [2]: 50 to 100%
YFM rating [3]: A (80-100)

COc1cc(F)ccc1NC(=O)c1cc(NC(=O)[C@H]2[C@H](c3cc(Cl)cc(Cl)c3)C2(Cl)Cl)ccc1Cl (relative stereo) [PF58, trans-2-Chloro-5-(2,2-dichloro-3-(3,5-dichlorophenyl)cyclopropane-1-carboxamido)-N-(4-fluoro-2-methoxyphenyl)benzamide]
pest or weed control at 50 µg/cm2 [1]: 50 to 100%
pest or weed control at 50 µg/cm2 [2]: 50 to 100%
YFM rating [3]: A (80-100)

O=C(Nc1ccc(OCC(F)(F)F)cc1)c1cc(NC(=O)[C@H]2[C@H](c3cc(Cl)cc(Cl)c3)C2(Cl)Cl)ccc1Cl (relative stereo) [PF62, trans-2-Chloro-5-(2,2-dichloro-3-(3,5-dichlorophenyl)cyclopropane-1-carboxamido)-N-(4-(2,2,2-trifluoroethoxy)phenyl)benzamide]
pest or weed control at 50 µg/cm2 [1]: 50 to 100%
pest or weed control at 50 µg/cm2 [2]: 50 to 100%
YFM rating [3]: A (80-100)
